≈ marks a conversion by molar mass, not a printed value.
Columns and labels:
Type in all cases: cell-based
S. aureus ATCC 13709 = test: MIC, antibacterial potency, S. aureus; details: S. aureus (SA); in µg/mL
S. pneumoniae ATCC 51916 = test: MIC, S. pneumoniae; details: S. pneumoniae (Spn52); in µg/mL
E. coli 8 ATCC 25922 = test: MIC, E. coli 8 (wt); details: E. coli 8 (EC8)

MIC, SA (S. aureus ATCC 13709) | MIC Spn52 (S. pneumoniae ATCC 51916) | MIC EC8 (E. coli 8 ATCC 25922) [µg/mL] | Compound
16 | >64 | > 64 | CCc1[nH]c2nc(Sc3ccc4cc(C(=O)N5CC(O)C5)c(C)[n+]([O-])c4c3)nc(N3CC[C@@H](N)C3)c2c1Cl [701,048]
32 | >32 | > 32 | CCc1[nH]c2nc(Sc3cnc4c(c3)c(=O)ncn4C)nc(N3CC4C(N)C4C3)c2c1C (stereo not drawn) [701,292]
64 | 32 | > 64 | CCc1[nH]c2nc(Oc3cnc4ccoc4c3)nc(N3CC4CNC4C3)c2c1Cl (stereo not drawn) [700,936]
>64 | >64 | > 64 | Cc1nc(Sc2cncc(C(N)=O)c2)nc2[nH]c(C(C)O)c(Cl)c12 (stereo not drawn) [701,240]
8 | 32 | > 64 | CCc1[nH]c2nc(Sc3cc(C(=O)O)c4cnccc4c3)nc(N3CC[C@@H](N)C3)c2c1Cl [700,970]
64 | >64 | > 64 | CCc1[nH]c2nc(Sc3cccnc3)nc(Cl)c2c1C(F)F [701,153]
8 | 8 | > 64 | CCc1[nH]c2nc(Sc3ccc4[nH]nnc4c3)nc(N3CC[C@@H](N)C3)c2c1Cl [701,090]
<=0.5 | 2 | > 64 | CCc1[nH]c2nc(Oc3ccc4nccnc4c3)nc(Oc3ccc4ncn(C)c4c3)c2c1Cl [701,007]
1 | 16 | > 64 | CCc1[nH]c2nc(Sc3ccc4cc5c([n+]([O-])c4c3)CCNC5)nc(N3CCc4nc(N)sc4C3)c2c1Cl [700,990]
<=0.5 | <=0.5 | > 64 | CCc1[nH]c2nc(Oc3ccc4nccnc4c3)nc(Oc3ccc4c(c3)ncc[n+]4[O-])c2c1Br [701,060]
<=0.5 | 1 | > 64 | CCc1[nH]c2nc(Oc3ccc4nccnc4c3)nc(Oc3ccc4c(c3)ncn4C)c2c1Br [700,998]
<=0.5 | <=0.5 | 4 (≈ 8.83 µM) | CCc1[nH]c2nc(Oc3cncnc3)nc(Oc3cc(O)cc(C#N)c3)c2c1Br [701249-2]
8 | 8 | > 64 | CCc1[nH]c2nc(Oc3cnc4c(c3)ncn4C)nc(N3CC[C@@H](NC(C)=O)C3)c2c1Br [701,032]
16 | 4 | 64 (≈ 121 µM) | CCc1[nH]c2nc(Sc3cnc4c(=N)n(CCN(C)C)c(C)nc4c3)nc(N3CC[C@@H](N)C3)c2c1Cl [700,924]
2 | 8 | > 64 | CCc1[nH]c2nc(Sc3cncc(S(=O)(=O)N(C)C)c3)nc(N3CC4C(N)C4C3)c2c1Cl (stereo not drawn) [701,181]
2 | 4 | > 64 | CCc1[nH]c2nc(Sc3cnc4cccnc4c3)nc(N3CCC(CNS(=O)(=O)c4cnoc4C)C3)c2c1Cl (stereo not drawn) [701,046]
1 | 4 | > 64 | CCc1[nH]c2nc(Oc3ccc4nccnc4c3)nc(C)c2c1Cl [701,232]
32 | 16 | 64 (≈ 171 µM) | CCc1[nH]c2nc(Oc3cnc(C)nc3)nc(OC3CCNC3)c2c1Cl (stereo not drawn) [701,291]
4 | 16 | > 64 | CCc1[nH]c2nc(Oc3cncc(OC)c3)nc(N3CC(O)C3)c2c1Cl [700,934]
>64 | >64 | > 64 | CCc1[nH]c2nc(Oc3cncc(C(N)=O)c3)nc(N3CC4C(N)C4C3)c2c1Cl (stereo not drawn) [701,278]
8 | 16 | > 64 | CCc1[nH]c2nc(Oc3cccc(C#N)c3)nc(C(C)O)c2c1Cl (stereo not drawn) [700,930]
8 | >64 | 32 (≈ 55.7 µM) | CCc1[nH]c2nc(Sc3ccc4c(Oc5cccc(CNC)c5)cc(C)nc4c3)nc(N3CC[C@@H](N)C3)c2c1Cl [700,912]

Reference: US10047105B2, “Gyrase inhibitors” (Merck Sharp & Dohme Corp., priority 2009, dated 2018)
